Test results: patent US11506670B2, “Method of genome-wide direct identification of electrophile-sensing targets” (Cornell University, priority 2018, dated 2022)

Test system: Ube2V2 ubiquitination and cellular Ub pools
Test: Ubiquitination analysis by IP, K63-TUBE pulldown and western blot in HEK293T cells
Assay type: cell-based, human
Description: Cells were lysed in 1×RIPA buffer containing in final concentrations 1× Protease inhibitor, 1 mM sodium orthovanadate and 1 mM PMSF, by rapid freeze-thaw (×3). Cell debris was removed and the supernatant was collected after centrifugation at 18,000×g for 20 min at 4° C. Protein concentration was determined using Bradford assay. 30-50 μg of total lysates were subjected to SDS-PAGE and the gel was transferred onto a PVDF membrane at 100 V for 1 h at 4° C. or at 40 V overnight at 4° C. Membrane was blocked with 10% milk and probed with various antibodies at the indicated dilutions (Table 4, above).
HEK 293T cells were seeded in 2×60 cm^2 plates. After the cells reached 60% confluence (˜18-24 h), the old media was replaced with 8 mL of fresh complete media. Cells were transfected with 7.5 μg of the designated Halo clone and 30 μL PEI (1 mg/mL) in 600 μL in Opti-MEM media for 24-36 h after which the cells were treated with 25 μM Ht-PreHNE for 2.5 h. Rinsing and light shining protocol were as described above. Cells were harvested, pooled, washed twice with chilled 1×DPBS and flash frozen. Cell lysis was performed in 100-200 μL per 1.5×10^6 cells of either: lysis buffer [containing in final concentrations 50 mM HEPES (pH 7.6), 150 mM NaCl, 1% Nonidet P-40 and 1× Roche cOmplete, mini, EDTA-free protease inhibitor cocktail] for Flag pull down; or RIPA buffer [containing in final concentrations 50 mM HEPES (pH 7.6), 150 mM NaCl, 1% Nonidet P-40, 0.1% SDS, 0.25% sodium deoxycholate, and 1× Roche cOmplete, mini, EDTA-free protease inhibitor cocktail] for HA pull down, followed by rapid freeze-thaw cycles (×3). Lysate was clarified by centrifugation at 18,000×g for 10 min at 4° C. Total protein concentration was determined using Bradford assay with BSA as standard. The lysate was subsequently diluted to 2 mg/mL with binding buffer containing in final concentrations 50 mM HEPES (pH 7.6), 150 mM NaCl, 1× Roche cOmplete, mini, EDTA-free protease inhibitor cocktail, and 0.1% Tween-20. This diluted lysate was subjected to either 50-100 μL bed volume of ANTI-FLAG® M2 affinity gel (A2220, Sigma) or monoclonal anti-HA-agarose (clone HA-7, A2095, Sigma) that had been pre-equilibrated with the binding buffer above. The sample was incubated with beads for 2-3 h at 4° C. by end-over-end rotation after which time the supernatant was removed post-centrifugation at 1000×g (anti-FLAG pull down) or 5000×g (anti-HA pull down) for 3 min. The beads were washed three times at 4° C. with 500 μL wash buffer containing in final concentrations 50 mM HEPES (pH 7.6), 150 mM NaCl, 1× Roche cOmplete, mini, EDTA-free protease inhibitor cocktail, and 0.1% Tween-20, using end-over-end rotation over 10 min during each wash. The bound protein was eluted by either incubating with 0.15 mg/mL 3× flag peptide for 2 h at 4° C. (anti-Flag pull down) or by boiling the beads at 98° C. for 10 min with 30 μL of 3× Laemmeli dye containing 6% βME (anti-HA pull down). The sample was subjected to SDS-PAGE and transferred to a PVDF membrane for western blot analysis described above.
Cells were grown and transfected as described above. After T-REX™ delivery, cells were harvested and lysed in 100-200 μL (˜1.5×10^6 cells) of lysis buffer [containing in final concentrations 50 mM HEPES (pH 7.6), 300 nM Biotin K63-TUBE, 150 mM NaCl, 5 mM EDTA, 3 mM 1,10-phenanthroline, 5 mM NEM, 20 μM PR-619, 1% Nonidet P-40 and 1× Roche cOmplete, mini, EDTA-free protease inhibitor cocktail] according to manufactures' manual (Biotin K63 TUBE, Lifesensors). Lysate was clarified by centrifugation at 18,000×g for 10 min at 4° C. Total protein concentration was determined using Bradford assay using BSA as standard. […]

CCCCCC(O)/C=C/C=O (stereo not drawn) [HNE, 4-hydroxynonenal] was tested, and the “K63-linked total cellular Ub pools” value (HEK293T) was “did not alter K63-linked total cellular Ub pools”, the “pan cellular poly-Ub-pools” value (HEK293T) was “no effect” and the “K63-linked ubiquitination of Ube2V2 upon T-REX delivery” value (cells expressing wt-Ube2V2, not C69S) was “significantly upregulated”.
